Data published in ChEMBL document CHEMBL5131558, “Fluorescent PARP Inhibitors Applied To Intracranial Glioblastoma: Accumulation and Persistence In Vivo” (ACS Med Chem Lett, 2022).
pIC50: −log10 of the molar value.

Assays:
[1] = tested on: U-87 MG; assay: Cytotoxicity against human U87 cells assessed as reduction in cell viability incubated for 72 hrs by alamar blue assay; assay type: functional, cell-based, U-87MG ATCC
[2] = tested on: U87; assay: Inhibition of PARP production in human U87 cells preincubated for 24 hrs followed by H2O2 addition and measured over 15 mins; assay type: cell-based; conditions: dose 0.1-10 µM, time 1455.0 min, DDE = dose-dependent effect
[3] = tested on: U-87 MG; assay: Cytotoxicity against human U87 cells assessed as reduction in cell viability incubated for 72 hrs in presence of rAOC-Rib by alamar blue assay; assay type: functional, cell-based, U-87MG ATCC
[4] = Half life of the compound; assay type: physicochemical
[5] = tested on: MDA-MB-231; assay: Cytotoxicity against human MDA-MB-231 cells assessed as reduction in cell viability incubated for 72 hrs by alamar blue assay; assay type: functional, cell-based; conditions: MDA-MB-231, 72 h
[6] = Drug uptake in liver of mouse xenografted with human U87 MG cells at 25 nmol, iv measured after 24 hrs by fluorescence imaging analysis; assay type: ADME, organism-based, U-87MG ATCC; conditions: in vivo
[7] = Drug uptake in tumor of mouse xenografted with human U87 MG cells assessed as increase in fluorescence signal at 25 nmol, iv measured after 24 hrs by […] imaging method; assay type: ADME, organism-based, Neoplasm, U-87MG ATCC; conditions: in vivo
[8] = tested on: MDA-MB-231; assay: Inhibition of PARP production in human MDA-MB-231 cells preincubated for 24 hrs followed by H2O2 addition and measured over 15 mins; assay type: cell-based; conditions: dose 0.001-10 µM, time 1455.0 min, DDE = dose-dependent effect

Compound | pIC50 [1] | pIC50 [5] | further results
CN(CCCCCCCCN)Cc1ccc(-c2[nH]c3cc(F)cc4c3c2CCNC4=O)cc1 | 4.10 |  | 
CN(Cc1ccc(-c2[nH]c3cc(F)cc4c3c2CCNC4=O)cc1)C(=O)CCCCCCCNC(=O)CCCCCN1/C(=C/C=C2\CCCC(/C=C/C3=[N+](CCCCCC(=O)O)c4ccccc4C3(C)C)=C2Cl)C(C)(C)c2ccccc21 | 4.92 |  | inhibition [2]: Dde
CC1(C)C(/C=C/C2=C(Cl)C(=C/C=C3/N(CCCCCC(=O)O)c4ccccc4C3(C)C)/CCC2)=[N+](CCCCCC(=O)O)c2ccccc21 | 4.57 |  | pIC50 [3]: 4.55; half-life [4]: 30 min
CNCc1ccc(-c2[nH]c3cc(F)cc4c3c2CCNC4=O)cc1 [RUCAPARIB] | 4.70 | 4.41 | 
CN(Cc1ccc(-c2[nH]c3cc(F)cc4c3c2CCNC4=O)cc1)C(=O)CCCCCN1/C(=C/C=C2\CCCC(/C=C/C3=[N+](CCCCCC(=O)O)c4ccccc4C3(C)C)=C2Cl)C(C)(C)c2ccccc21 | 4.82 | 4.89 | Drug uptake [6]: Active; Drug uptake [7]: Active; inhibition [8]: Dde
